Measured values from patent publication US20100010002A1, “ANTICANCER USE OF CAFFEIC ACID AND ITS DERIVATIVES” (Piramal Life Sciences Limited, priority 2006, published 2010).
Read-outs that look alike come from different tables or passages of the source.

Assays:
Ba/F3 Bcr-Abl/M244V = molecular target: T1, Ba/F3 Bcr-Abl/M244V (Homo sapiens, UniProt P00519, M244V, cells depend on it); assay: CCK-8 assay, Ba/F3 Bcr-Abl/M244V; format: cell-based
T1 construct: fused on or other part: P11274 (Breakpoint cluster region protein)

Ba/F3 Bcr-Abl/E255V = molecular target: T2, Ba/F3 Bcr-Abl/E255V (Homo sapiens, UniProt P00519, E255V, cells depend on it); assay: CCK-8 assay, Ba/F3 Bcr-Abl/E255V; format: cell-based
T2 construct: fused on or other part: P11274 (Breakpoint cluster region protein)

Ba/F3 Bcr-Abl/M351T = molecular target: T3, Ba/F3 Bcr-Abl/M351T (Homo sapiens, UniProt P00519, M351T, cells depend on it); assay: CCK-8 assay, Ba/F3 Bcr-Abl/M351T; format: cell-based
T3 construct: fused on or other part: P11274 (Breakpoint cluster region protein)

Ba/F3 Bcr-Abl/H396R = molecular target: T4, Ba/F3 Bcr-Abl/H396R (Homo sapiens, UniProt P00519, H396R, cells depend on it); assay: CCK-8 assay, Ba/F3 Bcr-Abl/H396R; format: cell-based
T4 construct: fused on or other part: P11274 (Breakpoint cluster region protein)

Ba/F3 Bcr-Abl/Y253F = molecular target: T5, Ba/F3 Bcr-Abl/Y253F (Homo sapiens, UniProt P00519, Y253F, cells depend on it); assay: CCK-8 assay, Ba/F3 Bcr-Abl/Y253F; format: cell-based
T5 construct: fused on or other part: P11274 (Breakpoint cluster region protein)

Ba/F3 Bcr-Abl/F359V = molecular target: T6, Ba/F3 Bcr-Abl/F359V (Homo sapiens, UniProt P00519, F359V, cells depend on it); assay: CCK-8 assay, Ba/F3 Bcr-Abl/F359V; format: cell-based
T6 construct: fused on or other part: P11274 (Breakpoint cluster region protein)

Ba/F3 Bcr-Abl/E255K = molecular target: T7, Ba/F3 Bcr-Abl/E255K (Homo sapiens, UniProt P00519, E255K, cells depend on it); assay: CCK-8 assay, Ba/F3 Bcr-Abl/E255K; format: cell-based
T7 construct: fused on or other part: P11274 (Breakpoint cluster region protein)

Ba/F3 Bcr-Abl/T315I = Ba/F3 Bcr-Abl/T315I (Homo sapiens, UniProt P00519, T315I, cells depend on it)
From the text: (§1) The cell lines described in Table 3 were used to test the antiproliferative activity of test compounds.
(§2) Cell Counting Kit-8 (CCK-8) allows very convenient assay by utilizing Dojindo's highly water-soluble tetrazolium salt. CCK-8, being nonradioactive, allows sensitive colorimetric assay for the determination of number of viable cells in cell proliferation and cytotoxicity assays. The amount of the formazan dye generated by dehydrogenases in cells is directly proportional to the number of living cells. Thus, the CCK-8 assay can also be substituted for the H^3-Thymidine incorporation assay.
(§3) Plates were further incubated at 37° C., 5% CO2 incubator for 72 h. 10 μl of the CCK-8 solution was added to each well and plate was incubated for 1-4 h in the incubator. Measured the absorbance at 450 nm using a microplate reader.
(§4) A. The percent inhibition and IC50 were calculated in comparison with control values.

Ba/F3 Bcr-Abl/Q252H = molecular target: T8, Ba/F3 Bcr-Abl/Q252H (Homo sapiens, UniProt P00519, Q252H, cells depend on it); assay: CCK-8 assay, Ba/F3 Bcr-Abl/Q252H; format: cell-based
T8 construct: fused on or other part: P11274 (Breakpoint cluster region protein)

K562 = assay: CCK-8 cell proliferation and cytotoxicity assay, K562; format: cell-based, Human; settings: read-out: Inhibitory concentration (IC50), K562
Ba/F3 Bcr-Abl/WT = molecular target: T9, Ba/F3 Bcr-Abl/WT (Homo sapiens, UniProt P00519); assay: CCK-8 assay, Ba/F3 Bcr-Abl/WT; format: cell-based; settings: CCK-8, 72 h, imatinib mesylate sensitive; read-out: Inhibitory concentration (IC50), Ba/F3 Bcr-Abl/WT
T9 construct: fused on or other part: P11274 (Breakpoint cluster region protein)
From the text: as §1, §2, §3, §4

Ba/F3 Bcr-Abl/H396P = molecular target: T10, Ba/F3 Bcr-Abl/H396P (Homo sapiens, UniProt P00519, H396P, cells depend on it); assay: CCK-8 assay, Ba/F3 Bcr-Abl/H396P; format: cell-based
T10 construct: fused on or other part: P11274 (Breakpoint cluster region protein)

Ba/F3 Bcr-Abl/Y253H = molecular target: T11, Ba/F3 Bcr-Abl/Y253H (Homo sapiens, UniProt P00519, Y253H, cells depend on it); assay: CCK-8 assay, Ba/F3 Bcr-Abl/Y253H; format: cell-based
T11 construct: fused on or other part: P11274 (Breakpoint cluster region protein)

Ba/F3 Bcr-Abl/F317L = molecular target: T12, Ba/F3 Bcr-Abl/F317L (Homo sapiens, UniProt P00519, F317L, cells depend on it); assay: CCK-8 assay, Ba/F3 Bcr-Abl/F317L; format: cell-based
T12 construct: fused on or other part: P11274 (Breakpoint cluster region protein)

[1] = mouse, ba/f3 bcr-abl/t315i, 72 h
[2] = read-out: Inhibitory concentration (IC50), Ba/F3 Bcr-Abl/T315I, CCK-8, 72 h, imatinib mesylate resistant, Table 4
[3] = CCK-8, 72 h, imatinib mesylate sensitive K562

GI50 (Ba/F3 Bcr-Abl/M244V; mouse, 72 h) [µM]	GI50 (Ba/F3 Bcr-Abl/E255V; mouse, 72 h) [µM]	GI50 (Ba/F3 Bcr-Abl/M351T; mouse, 72 h) [µM]	GI50 (Ba/F3 Bcr-Abl/H396R; mouse, 72 h) [µM]	GI50 (Ba/F3 Bcr-Abl/Y253F; mouse, 72 h) [µM]	GI50 (Ba/F3 Bcr-Abl/F359V; mouse, 72 h) [µM]	GI50 (Ba/F3 Bcr-Abl/E255K; mouse, 72 h) [µM]	GI50 (Ba/F3 Bcr-Abl/T315I; [1]) [µM]	GI50 (Ba/F3 Bcr-Abl/T315I; [2]) [µM]	GI50 (Ba/F3 Bcr-Abl/Q252H; mouse, 72 h) [µM]	GI50 (Ba/F3 Bcr-Abl/WT) [µM]	GI50 (Ba/F3 Bcr-Abl/H396P; mouse, 72 h) [µM]	GI50 (Ba/F3 Bcr-Abl/Y253H; mouse, 72 h) [µM]	GI50 (Ba/F3 Bcr-Abl/F317L; mouse, 72 h) [µM]	Compound	IC50 (K562; Homo sapiens, K562, 72 h) [µM]	IC50 (K562; [3]) [µM]	other results
> 100	> 100	> 100	> 100	> 100	> 100	> 100	> 100	> 100	> 100	> 100	> 100	> 100	> 100	O=C(O)/C=C/c1ccc(O)c(O)c1 [Compound 1, 3-(3,4-Dihydroxy-phenyl)-acrylic acid [caffeic acid]]	> 100		
15.2	10.2	8.7	8.6	6.4	13.4	6.7	1.1	2.3 ± 0.9	8.4	3.3 ± 0.9	16.6	13.2	12.3	CCOC(=O)C=Cc1ccc(O)c(O)c1 [Compound 3, 3-(3,4-Dihydroxy-phenyl)-acrylic acid ethyl ester]	11.8 ± 8.8		
3	3.4	2.2	1.1	1.7	2.5	2.9	0.6	0.7 ± 0.1	1.7	2.4 ± 0.8	5.6	3.3	1.6	CCCOC(=O)C=Cc1ccc(O)c(O)c1 [Compound 5, 3-(3,4-Dihydroxy-phenyl)-acrylic acid n-propyl ester]	13.5 ± 2.1		
9.8	9.9	5.1	7	5.2	14.6	5.1	2	1.7 ± 1.1	5.9	2.3 ± 1.1	10.8	13.3	11.3	CC(C)OC(=O)C=Cc1ccc(O)c(O)c1 [Compound 6, 3-(3,4-Dihydroxy-phenyl)-acrylic acid i-propyl ester]	16.5 ± 2.1		
								43.1 ± 27.9		40.6 ± 16.4				CCN1CCN(C(=O)C=Cc2ccc(O)c(O)c2)CC1 [Compound 9, 3-(3,4-Dihydroxy-phenyl)-1-(4-ethyl-piperazin-1-yl)-propenone]		59.5	
								2.5 ± 1.5		2.8 ± 0.4				O=C(C=Cc1ccc(O)c(O)c1)N1CCN(Cc2ccccc2)CC1 [Compound 10, 1-(4-Benzyl-piperazin-1-yl) 3-(3,4-dihydroxy-phenyl)-propenone]		18	GI50 (Ba/F3 Bcr-Abl/M244V): 1.3 µM; GI50 (Ba/F3 Bcr-Abl/E255V): 2.1 µM; GI50 (Ba/F3 Bcr-Abl/M351T): 2.2 µM; GI50 (Ba/F3 Bcr-Abl/H396R): 1 µM; GI50 (Ba/F3 Bcr-Abl/Y253F): 1.1 µM; GI50 (Ba/F3 Bcr-Abl/F359V): 2.6 µM; GI50 (Ba/F3 Bcr-Abl/E255K): 2.4 µM; GI50 (Ba/F3 Bcr-Abl/T315I; ba/f3 bcr-abl/t315i): 3.1 µM; GI50 (Ba/F3 Bcr-Abl/Q252H): 1.5 µM; GI50 (Ba/F3 Bcr-Abl/H396P): 3.7 µM; GI50 (Ba/F3 Bcr-Abl/Y253H): 2.5 µM; GI50 (Ba/F3 Bcr-Abl/F317L): 1.2 µM
								> 30		> 30				CN1CCC(N2CCN(C(=O)/C=C/c3ccc(O)c(O)c3)CC2)CC1 [Compound 12, (E)-3-(3,4-dihydroxy-phenyl)-1-[4-(1-methyl-piperidin-4-yl)piperazin-1-yl]-propenone]		> 30	
								26.6 ± 6.5		27 ± 8.5				O=C(/C=C/c1ccc(O)c(O)c1)N1CCN(c2ccccc2)CC1 [Compound 13, (E)-3-(3,4-dihydroxy-phenyl)-1-(4-phenylpiperazin-1-yl)-propenone]		33.5	
								9.5 ± 4.1		19.4 ± 8.8				CC(C)NC(=O)/C=C/c1ccc(O)c(O)c1 [Compound 18, (E)-3-(3,4-dihydroxy-phenyl)-N-isopropyl-acrylamide]	32.1		
								2.7 ± 0.5		4.2 ± 1.3				O=C(C=Cc1ccc(O)c(O)c1)N1CCC(Cc2ccccc2)CC1 [Compound 19, 1-(4-Benzyl-piperidin-1-yl)-3-(3,4-dihydroxy-phenyl)-propenone]		5.7	GI50 (Ba/F3 Bcr-Abl/M244V): 1 µM; GI50 (Ba/F3 Bcr-Abl/E255V): 0.8 µM; GI50 (Ba/F3 Bcr-Abl/M351T): 2.1 µM; GI50 (Ba/F3 Bcr-Abl/H396R): 1.4 µM; GI50 (Ba/F3 Bcr-Abl/Y253F): 1 µM; GI50 (Ba/F3 Bcr-Abl/F359V): 2.4 µM; GI50 (Ba/F3 Bcr-Abl/E255K): 1.5 µM; GI50 (Ba/F3 Bcr-Abl/T315I; ba/f3 bcr-abl/t315i): 2.1 µM; GI50 (Ba/F3 Bcr-Abl/Q252H): 1.1 µM; GI50 (Ba/F3 Bcr-Abl/H396P): 2.8 µM; GI50 (Ba/F3 Bcr-Abl/Y253H): 1 µM; GI50 (Ba/F3 Bcr-Abl/F317L): 1.1 µM
